In US20260183411A1, “TARGETING SORTILIN” (priority 2024, published 2026):
Bridges are numbered along the chain shown (N, C = ends). Where no end group is shown, it is not given here. [ ]: non-standard residue; d: D form. tBuAla = CC(C)(C)C[C@H](N)C(=O)O; Tle = CC(C)(C)[C@H](N)C(=O)O; Nle = CCCC[C@H](N)C(=O)O

Tests used:
[1] = tested on: GAPDH mRNA; assay: GAPDH mRNA knockdown in HEK293 cells overexpressing SORT-1 (RT-qPCR); format: cell-based; settings: HEK293 + SORT1 − CQ
Procedure: (§1) These GAPDH siRNA-peptide conjugates were then evaluated in HEK293 cells and the neuronal cell line, neuro2A.

[2] = tested on: GAPDH mRNA; assay: GAPDH mRNA knockdown in differentiated Neuro-2a cells (RT-qPCR); format: cell-based; settings: Neuro2a − CQ
Procedure: as §1

[3] = tested on: housekeeping gene mRNA; assay: Mouse CNS delivery, intrathecal, 7-day (RT-qPCR); format: in vivo; settings: IT dosing
Procedure: These conjugates were administered to C57BL/6 mice intrathecally (IT), by injection into the spinal canal, for 7 days at 150 μg of siRNA. The delivery efficacy of the various peptide conjugates was measured by measuring the amount of the housekeeping gene mRNA remaining in tissue samples at the end of the 7-day dosing regimen via RT-qPCR of samples from various parts of the mouse CNS: lumbar spinal cord (LSC; FIG. 24A), brainstem (BS; FIG. 24B), cerebellum (CB; FIG. 24C), frontal cortex (FC; FIG. 24D), somatosensory cortex (SSC; FIG. 24E), hippocampus (HC; FIG. 24F), thalamus (TH;
FIG. 24G), liver (FIG. 24H), and heart (FIG. 24I). 7 days post-injection mice were sacrificed, and tissues collected (brain, spinal cord, heart, liver). Tissues were flash frozen and prepared for RT-qPCR detection of target housekeeping gene mRNA knockdown (quantified below in Table 19). Furthermore, histological studies were performed in the brain and cervical spinal cord. In situ hybridization using miRNAscope and a probe that binds the housekeeping gene siRNA was used to assess the localization of the SORT1 peptide conjugates in cross sections of the brain and cervical spinal cord.
To characterize the amount of mRNA present in tissue samples following 7 days from mice treated with SORT1 peptide conjugates, control mice were injected with an equivalent volume of artificial cerebrospinal fluid (aCSF) as a comparative negative control.

[4] = tested on: housekeeping gene mRNA; assay: Mouse CNS delivery, intracerebroventricular, 14/60-day (RT-qPCR); format: in vivo; settings: for ICV % housekeeping gene knockdown relative to aCSF: 14-day, ICV dosing
Procedure: The delivery of the SORT1 peptide conjugates was further tested over longer dosing regimens of 14 days and 60 days. […] The delivery of the siRNA-peptide-conjugated was measured at the end of the 14- or 60-day dosing regimen via RT-qPCR of samples from various parts of the mouse CNS: lumbar spinal cord (LSC; FIGS. 25A and 25B), brainstem (BS; FIGS. 25C and 25D), cerebellum (CB; FIGS. 25E and 25F), frontal cortex (FC; FIGS. 26A and 26B), somatosensory cortex (SSC; FIGS. 26C and 26D), hippocampus (HC; FIGS. 26E and 26F), thalamus (TH; FIGS. 27A and 27B), liver (FIGS. 27C and 27D), and heart (FIGS. 27E and 27F). 14- and 60-days post-injection mice were sacrificed, and tissues collected (brain, spinal cord, heart, liver). Tissues were flash frozen and prepared for RT-qPCR detection of target housekeeping gene mRNA knockdown (quantified below in Table 20).

[5] = tested on: housekeeping gene mRNA; assay: Rat CNS delivery, intrathecal, 28-day (RT-qPCR); format: in vivo; settings: IT, 900 μg siRNA
Procedure: SORT1 peptide 3 conjugate was prepared as described above. The SORT1 peptide 3 conjugate or a benchmark lipid were administered to rats intrathecally (IT), by injection into the spinal cord, for 28 days at 900 μg of siRNA. The delivery efficacy of the SORT1 peptide 3 conjugate was measured by measuring the amount of the housekeeping gene mRNA remaining in tissue samples at the end of the 28-day dosing regimen via RT-qPCR of samples from various parts of the rat CNS: lumbar spinal cord (LSC), cervical spinal cord (CSC), brainstem (BS), cerebellum (CB), somatosensory cortex (SSC), frontal cortex (FC), hippocampus (HC), thalamus (TH), liver, and heart. 28 day post-injection rats were sacrificed, and tissues collected (brain, spinal cord, heart, liver). Tissues were flash frozen and prepared for RT-qPCR detection of target housekeeping gene mRNA knockdown.
To characterize the amount of mRNA present in tissue samples from rats treated with SORT1 peptide 3 conjugates following the 28-day dosing regimen, control rats were injected with an equivalent volume of artificial cerebrospinal fluid (aCSF) as a comparative negative control.

Maleimide-(bAla)(Sar)(Sar)(Sar)(Sar)APRWDAPLRDPALRQ(B13)(G48) [Peptide 2-GAPDH6-thiol]
GAPDH mRNA % knockdown compared to untreated cells [1]: 40% | GAPDH mRNA % knockdown compared to untreated cells [2]: 0%

SORT1 peptide 3 conjugate (RWCENKR[Nle]FTCRQ[Tle][tBuAla]; disulfide 3-11 (inferred); not fully specified (residue 6); printed as RWCENKR(Nle)FTCRQ(B13)(F02); also: conjugated via a linker to siRNA targeting a housekeeping gene mRNA, attachment presumably at the introduced Lys)
IT % housekeeping gene knockdown relative to aCSF ([3]; BS): 77.0% | IT % housekeeping gene knockdown relative to aCSF ([3]; CB): 53.6% | IT % housekeeping gene knockdown relative to aCSF ([3]; FC): 50.1% | IT % housekeeping gene knockdown relative to aCSF ([3]; HC (deep brain)): 66.6% | IT % housekeeping gene knockdown relative to aCSF ([3]; Heart): 47.0% | IT % housekeeping gene knockdown relative to aCSF ([3]; LSC, 150 μg siRNA): 94.7% | IT % housekeeping gene knockdown relative to aCSF ([3]; Liver): 0.0% | IT % housekeeping gene knockdown relative to aCSF ([3]; SSC): 61.4% | IT % housekeeping gene knockdown relative to aCSF ([3]; TH (deep brain)): 33.4% | ICV % housekeeping gene knockdown relative to aCSF ([4]; BS): 79.6% | ICV % housekeeping gene knockdown relative to aCSF ([4]; CB): 66.6% | ICV % housekeeping gene knockdown relative to aCSF ([4]; FC): 72.6% | ICV % housekeeping gene knockdown relative to aCSF ([4]; HC (deep brain)): 72.1% | ICV % housekeeping gene knockdown relative to aCSF ([4]; Heart): 7.9% | knockdown of the target gene in peripheral tissues (heart and liver) relative to aCSF ([4]; ICV, after 14 days): No significant knockdown | ICV % housekeeping gene knockdown relative to aCSF ([4]; LSC, 100 μg siRNA): 84.8% | ICV % housekeeping gene knockdown relative to aCSF ([4]; Liver): 8.7% | ICV % housekeeping gene knockdown relative to aCSF ([4]; SSC): 72.6% | ICV % housekeeping gene knockdown relative to aCSF ([4]; TH (deep brain)): 76.2% | housekeeping gene mRNA in the CNS relative to the aCSF control [5]: significantly reduced
